{
  "source": "PubChem BioAssay (NCI)",
  "assay_in_all_cases": "inhibition of tumour cell growth, NCI panel, 48 h",
  "key": {"NCI-H226 lung": {"system": "NCI-H226 lung"}, "NCI-H23 lung": {"system": "NCI-H23 lung"}, "NCI-H460 lung": {"system": "NCI-H460 lung"}, "NCI-H522 lung": {"system": "NCI-H522 lung"}, "OVCAR-3 ovarian": {"system": "OVCAR-3 ovarian"}, "OVCAR-4 ovarian": {"system": "OVCAR-4 ovarian"}, "OVCAR-5 ovarian": {"system": "OVCAR-5 ovarian"}, "OVCAR-8 ovarian": {"system": "OVCAR-8 ovarian"}, "PC-3 prostate": {"system": "PC-3 prostate"}, "RPMI-8226 leukemia": {"system": "RPMI-8226 leukemia"}, "RXF 393 renal": {"system": "RXF 393 renal"}, "SF-268 CNS": {"system": "SF-268 CNS"}, "SF-295 CNS": {"system": "SF-295 CNS"}, "SF-539 CNS": {"system": "SF-539 CNS"}, "SK-MEL-2 melanoma": {"system": "SK-MEL-2 melanoma"}, "SK-MEL-28 melanoma": {"system": "SK-MEL-28 melanoma"}, "SK-MEL-5 melanoma": {"system": "SK-MEL-5 melanoma"}, "SK-OV-3 ovarian": {"system": "SK-OV-3 ovarian"}, "SN12C renal": {"system": "SN12C renal"}, "SNB-19 CNS": {"system": "SNB-19 CNS"}, "SNB-75 CNS": {"system": "SNB-75 CNS"}, "SR leukemia": {"system": "SR leukemia"}, "SW-620 colon": {"system": "SW-620 colon"}, "T-47D breast": {"system": "T-47D breast"}, "TK-10 renal": {"system": "TK-10 renal"}, "U251 CNS": {"system": "U251 CNS"}, "UACC-257 melanoma": {"system": "UACC-257 melanoma"}, "UACC-62 melanoma": {"system": "UACC-62 melanoma"}, "UO-31 renal": {"system": "UO-31 renal"}},
  "note": "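Interpolation was linear, between the two tested concentrations surrounding the appropriate level; five concentrations were tested over 48 hours in 96-well plates. At the GI50, growth is halved. TGI denotes the concentration required for complete inhibition of growth.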",
  "data": [
    {"smiles": "COc1cc(CNC(=O)/C=C/c2ccc3c(c2)OCO3)ccc1OCc1cn(-c2cccc(C(F)(F)F)c2)nn1", "values": [
      {"measurement": "GI50", "setting": "NCI-H226 lung", "result": 3.38, "unit": "µM"},
      {"measurement": "TGI", "setting": "NCI-H226 lung", "result": 14.7, "unit": "µM"},
      {"measurement": "GI50", "setting": "NCI-H23 lung", "result": 10.5, "unit": "µM"},
      {"measurement": "TGI", "setting": "NCI-H23 lung", "result": 23.9, "unit": "µM"},
      {"measurement": "GI50", "setting": "NCI-H460 lung", "result": 3.28, "unit": "µM"},
      {"measurement": "TGI", "setting": "NCI-H460 lung", "result": 11.6, "unit": "µM"},
      {"measurement": "GI50", "setting": "NCI-H522 lung", "result": 9.78, "unit": "µM"},
      {"measurement": "TGI", "setting": "NCI-H522 lung", "result": 23.7, "unit": "µM"},
      {"measurement": "GI50", "setting": "OVCAR-3 ovarian", "result": 3.31, "unit": "µM"},
      {"measurement": "TGI", "setting": "OVCAR-3 ovarian", "result": 11.6, "unit": "µM"},
      {"measurement": "GI50", "setting": "OVCAR-4 ovarian", "result": 2.9, "unit": "µM"},
      {"measurement": "TGI", "setting": "OVCAR-4 ovarian", "result": 10.3, "unit": "µM"},
      {"measurement": "GI50", "setting": "OVCAR-5 ovarian", "result": 14.5, "unit": "µM"},
      {"measurement": "TGI", "setting": "OVCAR-5 ovarian", "result": 31.8, "unit": "µM"},
      {"measurement": "GI50", "setting": "OVCAR-8 ovarian", "result": 3.91, "unit": "µM"},
      {"measurement": "TGI", "setting": "OVCAR-8 ovarian", "result": 15.4, "unit": "µM"},
      {"measurement": "GI50", "setting": "PC-3 prostate", "result": 13.4, "unit": "µM"},
      {"measurement": "TGI", "setting": "PC-3 prostate", "result": 29.3, "unit": "µM"},
      {"measurement": "GI50", "setting": "RPMI-8226 leukemia", "result": 18.5, "unit": "µM"},
      {"measurement": "TGI", "setting": "RPMI-8226 leukemia", "result": "> 100", "unit": "µM"},
      {"measurement": "GI50", "setting": "RXF 393 renal", "result": 2.93, "unit": "µM"},
      {"measurement": "TGI", "setting": "RXF 393 renal", "result": 9.87, "unit": "µM"},
      {"measurement": "GI50", "setting": "SF-268 CNS", "result": 12, "unit": "µM"},
      {"measurement": "TGI", "setting": "SF-268 CNS", "result": 34.8, "unit": "µM"},
      {"measurement": "GI50", "setting": "SF-295 CNS", "result": 4.84, "unit": "µM"},
      {"measurement": "TGI", "setting": "SF-295 CNS", "result": 17.8, "unit": "µM"},
      {"measurement": "GI50", "setting": "SF-539 CNS", "result": 3.54, "unit": "µM"},
      {"measurement": "TGI", "setting": "SF-539 CNS", "result": 12.7, "unit": "µM"},
      {"measurement": "GI50", "setting": "SK-MEL-2 melanoma", "result": 10.1, "unit": "µM"},
      {"measurement": "TGI", "setting": "SK-MEL-2 melanoma", "result": 22.8, "unit": "µM"},
      {"measurement": "GI50", "setting": "SK-MEL-28 melanoma", "result": 8.84, "unit": "µM"},
      {"measurement": "TGI", "setting": "SK-MEL-28 melanoma", "result": 21.7, "unit": "µM"},
      {"measurement": "GI50", "setting": "SK-MEL-5 melanoma", "result": 4.68, "unit": "µM"},
      {"measurement": "TGI", "setting": "SK-MEL-5 melanoma", "result": 16.4, "unit": "µM"},
      {"measurement": "GI50", "setting": "SK-OV-3 ovarian", "result": 16.3, "unit": "µM"},
      {"measurement": "TGI", "setting": "SK-OV-3 ovarian", "result": 36.5, "unit": "µM"},
      {"measurement": "GI50", "setting": "SN12C renal", "result": 9.04, "unit": "µM"},
      {"measurement": "TGI", "setting": "SN12C renal", "result": 27.6, "unit": "µM"},
      {"measurement": "GI50", "setting": "SNB-19 CNS", "result": 13.2, "unit": "µM"},
      {"measurement": "TGI", "setting": "SNB-19 CNS", "result": 27.9, "unit": "µM"},
      {"measurement": "GI50", "setting": "SNB-75 CNS", "result": 1.62, "unit": "µM"},
      {"measurement": "TGI", "setting": "SNB-75 CNS", "result": 5.37, "unit": "µM"},
      {"measurement": "GI50", "setting": "SR leukemia", "result": 21.3, "unit": "µM"},
      {"measurement": "TGI", "setting": "SR leukemia", "result": "> 100", "unit": "µM"},
      {"measurement": "GI50", "setting": "SW-620 colon", "result": 5.86, "unit": "µM"},
      {"measurement": "TGI", "setting": "SW-620 colon", "result": 22.5, "unit": "µM"},
      {"measurement": "GI50", "setting": "T-47D breast", "result": 3.27, "unit": "µM"},
      {"measurement": "TGI", "setting": "T-47D breast", "result": 26.6, "unit": "µM"},
      {"measurement": "GI50", "setting": "TK-10 renal", "result": 13.5, "unit": "µM"},
      {"measurement": "TGI", "setting": "TK-10 renal", "result": 32.2, "unit": "µM"},
      {"measurement": "GI50", "setting": "U251 CNS", "result": 4.5, "unit": "µM"},
      {"measurement": "TGI", "setting": "U251 CNS", "result": 17.6, "unit": "µM"},
      {"measurement": "GI50", "setting": "UACC-257 melanoma", "result": 10.8, "unit": "µM"},
      {"measurement": "TGI", "setting": "UACC-257 melanoma", "result": 25.4, "unit": "µM"},
      {"measurement": "GI50", "setting": "UACC-62 melanoma", "result": 11, "unit": "µM"},
      {"measurement": "TGI", "setting": "UACC-62 melanoma", "result": 23.4, "unit": "µM"},
      {"measurement": "GI50", "setting": "UO-31 renal", "result": 2.6, "unit": "µM"},
      {"measurement": "TGI", "setting": "UO-31 renal", "result": 10.1, "unit": "µM"}
    ]}
  ]
}
